Results from ChEMBL document CHEMBL4043090 (Bioorg Med Chem, 2017).
pIC50: −log10 of the molar value.

Columns and labels:
[1] = Cytotoxicity against human MAGI-CCR5 cells assessed as reduction in cell viability after 48 hrs by MTS assay; type: cell-based; settings: read-out: TC50
[2] = system: Human immunodeficiency virus 1; experiment: Antiviral activity against HIV-1 Bal infected in human MAGI-CCR5 cells assessed as reduction in viral infection after 48 hrs by fluorescence based beta-galactosidase reporter gene assay; type: functional, cell-based; settings: for pIC50 / IC90: Human immunodeficiency virus 1, Bal, MAGI-CCR5, 48 h
[3] = Therapeutic index, ratio of TC50 for human MAGI-CCR5 cells to IC50 for HIV-1 Bal infected in MAGI-CCR5 cells
PBMC = experiment: Antiviral activity against HIV-1 Bal infected in human PBMC by MTS assay; type: functional, cell-based
[4] = Cytotoxicity against human PBMC assessed as reduction in cell viability by MTS assay; type: cell-based; settings: read-out: TC50 (the source's name)
[5] = Therapeutic index, ratio of TC50 for human PBMC to IC50 for HIV-1 Bal infected in human PBMC

CC1=C(c2nc(-c3ccc(Cl)cc3)cs2)C(c2cccc(O)c2)NC(=O)N1 (configuration not stated)
CC50 at 48 h [1]: 55 µM
Activity [2]: Dose-dependent effect
pIC50 [2]: 5.72
IC90 [2]: 11 µM
TI [3]: 29
pIC50 (PBMC): 5.89
IC90 (PBMC): 4.1 µM
CC50 [4]: 65 µM
TI [5]: 50

COc1ccc(C2NC(=O)NC(C)=C2c2nc(-c3ccc(C#N)cc3)cs2)cc1O (configuration not stated)
CC50 at 48 h [1]: > 100 µM
Activity [2]: Dose-dependent effect
pIC50 [2]: 6.42
IC90 [2]: 37.8 µM
TI [3]: 263
pIC50 (PBMC): 6.82
IC90 (PBMC): 0.42 µM
CC50 [4]: > 100 µM
TI [5]: 667

CC1=C(c2nc(-c3ccc(C#N)cc3)cs2)C(c2ccc(OC(F)(F)F)cc2)NC(=O)N1 (configuration not stated)
CC50 at 48 h [1]: > 100 µM
Activity [2]: Dose-dependent effect
pIC50 [2]: 5.80
IC90 [2]: 7.6 µM
TI [3]: 63
pIC50 (PBMC): 5.07
IC90 (PBMC): 21 µM
CC50 [4]: > 100 µM
TI [5]: 12

CC1=C(c2nc(-c3ccc(C#N)cc3)cs2)C(c2cccc(OC(F)(F)F)c2)NC(=O)N1 (configuration not stated)
CC50 at 48 h [1]: > 100 µM
Activity [2]: Dose-dependent effect
pIC50 [2]: 5.62
IC90 [2]: 69.8 µM
TI [3]: 42
pIC50 (PBMC): 4.39
IC90 (PBMC): > 100 µM
CC50 [4]: > 100 µM
TI [5]: 2.4

CC1=C(c2nc(-c3ccc(C#N)cc3)cs2)C(c2ccncc2F)NC(=O)N1 (configuration not stated)
CC50 at 48 h [1]: > 100 µM
pIC50 [2]: 4.20
IC90 [2]: > 100 µM
TI [3]: 1.6

CC1=C(c2nc(-c3ccc(C#N)cc3)cs2)C(c2ccc(Oc3ccccc3)cc2)NC(=O)N1 (configuration not stated)
CC50 at 48 h [1]: > 10 µM
Activity [2]: Dose-dependent effect
pIC50 [2]: 6.92
IC90 [2]: 0.62 µM
TI [3]: 83
pIC50 (PBMC): 6.28
IC90 (PBMC): 1.8 µM
CC50 [4]: > 100 µM
TI [5]: 189

COc1cccc(C2NC(=O)NC(C)=C2c2nc(-c3ccc(C#N)cc3)cs2)n1 (configuration not stated)
CC50 at 48 h [1]: > 100 µM
Activity [2]: Dose-dependent effect
pIC50 [2]: 5.80
IC90 [2]: 14.4 µM
TI [3]: 63
pIC50 (PBMC): 5.80
IC90 (PBMC): 5.9 µM
CC50 [4]: > 100 µM
TI [5]: 63

CC1=C(c2nc(-c3ccc(C)cc3)cs2)C(c2cccc(O)c2)NC(=O)N1 (configuration not stated)
CC50 at 48 h [1]: 61 µM
Activity [2]: Dose-dependent effect
pIC50 [2]: 4.51
IC90 [2]: 80 µM
TI [3]: 2
pIC50 (PBMC): 4.80
IC90 (PBMC): 48 µM
CC50 [4]: 65 µM
TI [5]: 4.1

CC1=C(c2nc(-c3cccc(O)c3)cs2)C(c2cccc(O)c2)NC(=O)N1 (configuration not stated)
CC50 at 48 h [1]: 89 µM
Activity [2]: Dose-dependent effect
pIC50 [2]: 4.17
IC90 [2]: 98 µM
TI [3]: 1.3
pIC50 (PBMC): 4.40
IC90 (PBMC): 85 µM
CC50 [4]: 55 µM
TI [5]: 1.4

CC1=C(c2nc(-c3ccc(C#N)cc3)cs2)C(c2ccc3ccccc3n2)NC(=O)N1 (configuration not stated)
CC50 at 48 h [1]: > 100 µM
Activity [2]: Dose-dependent effect
pIC50 [2]: 5.82
IC90 [2]: 12.7 µM
TI [3]: 67
pIC50 (PBMC): 5.89
IC90 (PBMC): 5.5 µM
CC50 [4]: > 100 µM
TI [5]: 77

CC1=C(c2nc(-c3ccccc3)cs2)C(c2cccc(O)c2)NC(=O)N1 (configuration not stated)
CC50 at 48 h [1]: > 100 µM
Activity [2]: Dose-dependent effect
pIC50 [2]: 4.10
IC90 [2]: > 100 µM
TI [3]: 1.3
pIC50 (PBMC): 4.43
IC90 (PBMC): 81 µM
CC50 [4]: 76 µM
TI [5]: 2

CC1=C(c2nc(-c3ccc(C#N)cc3)cs2)C(c2ccnc3ccccc23)NC(=O)N1 (configuration not stated)
CC50 at 48 h [1]: > 100 µM
Activity [2]: Dose-dependent effect
pIC50 [2]: 5.42
IC90 [2]: 98.3 µM
TI [3]: 26
pIC50 (PBMC): 5.54
IC90 (PBMC): 10.5 µM
CC50 [4]: 68.3 µM
TI [5]: 24

CC1=C(c2nc(-c3ccc(C#N)cc3)cs2)C(c2ccc(OCc3ccccc3)cc2)NC(=O)N1 (configuration not stated)
CC50 at 48 h [1]: > 10 µM
Activity [2]: Dose-dependent effect
pIC50 [2]: 6.89
IC90 [2]: 0.75 µM
TI [3]: 77
pIC50 (PBMC): 6.68
IC90 (PBMC): 0.6 µM
CC50 [4]: > 100 µM
TI [5]: 476

CC1=C(c2nc(-c3ccc(C#N)cc3)cs2)C(c2ccc(Oc3ccccc3)nc2)NC(=O)N1 (configuration not stated)
CC50 at 48 h [1]: > 100 µM
Activity [2]: Dose-dependent effect
pIC50 [2]: 6.19
IC90 [2]: 2.8 µM
TI [3]: 156
pIC50 (PBMC): 5.92
IC90 (PBMC): 3.4 µM
CC50 [4]: 67.5 µM
TI [5]: 56

CC1=C(c2nc(-c3cccs3)cs2)C(c2cccc(O)c2)NC(=O)N1 (configuration not stated)
CC50 at 48 h [1]: > 100 µM
pIC50 [2]: 4.31
IC90 [2]: > 100 µM
TI [3]: 2

CC1=C(c2nc(-c3ccc4ccccc4c3)cs2)C(c2cccc(O)c2)NC(=O)N1 (configuration not stated)
CC50 at 48 h [1]: 55 µM
Activity [2]: Dose-dependent effect
pIC50 [2]: 4.37
IC90 [2]: 84 µM
TI [3]: 1.3
pIC50 (PBMC): 4.89
IC90 (PBMC): 29 µM
CC50 [4]: 47 µM
TI [5]: 3.6

CC1=C(c2nc(-c3ccc(C(F)(F)F)cc3)cs2)C(c2cccc(O)c2)NC(=O)N1 (configuration not stated)
CC50 at 48 h [1]: 40 µM
Activity [2]: Dose-dependent effect
pIC50 [2]: 5.28
IC90 [2]: 23 µM
TI [3]: 7.7
pIC50 (PBMC): 5.23
IC90 (PBMC): 18 µM
CC50 [4]: 57 µM
TI [5]: 9.7

CC1=C(c2nc(-c3cccc(C#N)c3)cs2)C(c2ccc(O)cc2)NC(=O)N1 (configuration not stated)
CC50 at 48 h [1]: 69.6 µM
Activity [2]: Dose-dependent effect
pIC50 [2]: 5.36
IC90 [2]: 40.9 µM
TI [3]: 16
pIC50 (PBMC): 5.48
IC90 (PBMC): 10.2 µM
CC50 [4]: 87.5 µM
TI [5]: 27

CC1=C(c2nc(-c3ccc(C#N)cc3)cs2)C(c2ccnc(Cl)c2)NC(=O)N1 (configuration not stated)
CC50 at 48 h [1]: > 100 µM
Activity [2]: Dose-dependent effect
pIC50 [2]: 5.49
IC90 [2]: > 100 µM
TI [3]: 31
pIC50 (PBMC): 5.36
IC90 (PBMC): 44.5 µM
CC50 [4]: > 100 µM
TI [5]: 23

COc1cncc(C2NC(=O)NC(C)=C2c2nc(-c3ccc(C#N)cc3)cs2)c1 (configuration not stated)
CC50 at 48 h [1]: > 100 µM
pIC50 [2]: 4.98
IC90 [2]: > 100 µM
TI [3]: 9.6

CC1=C(c2nc(-c3ccc(F)cc3)cs2)C(c2cccc(O)c2)NC(=O)N1 (configuration not stated)
CC50 at 48 h [1]: 60 µM
Activity [2]: Dose-dependent effect
pIC50 [2]: 5.42
IC90 [2]: 50 µM
TI [3]: 16
pIC50 (PBMC): 5.10
IC90 (PBMC): 18 µM
CC50 [4]: 58 µM
TI [5]: 7.3

CC1=C(c2nc(-c3ccc(C#N)cc3)cs2)C(c2cncc(F)c2)NC(=O)N1 (configuration not stated)
CC50 at 48 h [1]: > 100 µM
Activity [2]: Dose-dependent effect
pIC50 [2]: 6.15
IC90 [2]: > 100 µM
TI [3]: 143
pIC50 (PBMC): 6.28
IC90 (PBMC): 1.3 µM
CC50 [4]: > 100 µM
TI [5]: 189

CC1=C(c2nc(-c3ccc(C#N)cc3)cs2)C(c2cccnc2Cl)NC(=O)N1 (configuration not stated)
CC50 at 48 h [1]: > 100 µM
Activity [2]: Dose-dependent effect
pIC50 [2]: 5.66
IC90 [2]: 85.5 µM
TI [3]: 46
pIC50 (PBMC): 5.82
IC90 (PBMC): 8.8 µM
CC50 [4]: > 100 µM
TI [5]: 67
